One compound from US5474992A, “Method of treatment with pharmaceutical composition for renal disorder and a dialysis solution for extracorporeal hemodialysis” (Senju Pharmaceutical Co., Ltd., priority 1993, dated 1995) can be followed below.

Data set [1] can be described thus: Acute toxicity (LD50) in rats. The following applies: rat, in vivo. On the procedure:
The compound of this invention for use as the active ingredient of said pharmaceutical composition or dialysis solution is extremely low in toxicity and highly safe and, therefore, can be used advantageously for purposes of this invention [e.g. the LD50 values of L-ascorbyl DL-α-tocopheryl phosphate potassium (hereinafter referred to briefly as EPC-K)≥5 g/kg p.o. (rats) and≥100 mg/kg i.v. (rats)].

Data set [2] deals with rats with vitamin E deficiency. Briefly: Effect on renal impairment in rats with vitamin E deficiency (DL-buthionine sulfoximine induced). The class given is in vivo, male Wistar rats. Particulars: 141 mg/5 ml/kg p.o. once daily for one week, vitamin E-deficient rats + BSO, mean ± standard error, n=5. On the procedure: The effect of the compound of this invention, administered orally, on renal impairment in rats with vitamin E deficiency was evaluated.
Test substance: L-ascorbyl DL-α-tocopheryl phosphate potassium (abbreviation: EPC-K).
Method: Male Wistar rats were purchased from Japan Clea, Inc. at the age of 4 weeks and put on a vitamin E-deficient diet for 10 weeks before the experiment.
The rat model of renal impairment was constructed by administering 1 mmol/kg of DL-buthionine sulfoximine (abbreviation: BSO), a glutathione (abbreviation: GSH) synthesis inhibitor, intraperitoneally once a day for 3 consecutive days.
Five hours after the last administration of DL-buthionine sulfoximine (BSO), the blood was drawn from the lower abdominal aorta under pentobarbital anesthesia and the serum levels of creatinine, urea nitrogen (abbreviation: BUN) and lipid peroxide (abbreviation: LPO), which are indicators of renal function, were determined by Jaffe's method, urease-indophenol method, and Yagi's method, respectively.
The test substance EPC-K was administered orally in a dose of 141 mg/5 ml/kg once daily for one week until the blood sampling day. As a control, distilled water was used.

Data set [3] has as its system adriamycin nephrosis in rats. The experiment in a line: Effect on adriamycin nephrosis in rats. Type of data set: in vivo, male SD rats. The following applies: 1 mg/kg, i.p. once daily, day 80, mean ± standard error, n=5 to 6. On the procedure: The effect of the compound of this Invention on adriamycin nephrosis in rats was evaluated.
Method: This study was conducted in male SD rats (body weight: about 180 g) purchased from Japan SLC. The rats were intravenously dosed with 7.5 mg/kg of adriamycin to induce renal impairment.
The test substance EPC-K was administered intraperitoneally once daily and the rat was sacrificed on day 80 for determination of biochemical parameters. Physiological saline was used as control.

The test system of data set [4] is salt-sensitive rats. Briefly: Effect on salt-sensitive rats (NaCl-induced renal impairment). Type of data set: in vivo, male Dahl S rats. The following applies: mean ± standard error, n=4 to 6, * p < 0.0001, control 30.0 ± 2.9. On the procedure:
The effect of the compound of this invention on salt-sensitive rats was investigated.
Method: Male Dahl S rats (salt-sensitive rats) were purchased from Seiwa Experimental Animal Institute and loaded with 8% aqueous solution of sodium chloride to induce renal impairment.
The test substance EPC-K was administered once daily for 4 weeks. As a control, distilled water was orally administered.

Data set [5] relates to adenine nephrosis in rats. Briefly: Effect on adenine nephrosis in rats. The class given is in vivo, male Wistar rats. Particulars: i.p. once a day, mean ± standard error, n=8 to 9; for Creatinine: control (saline) 1.95 ± 0.64; for BUN: control (saline) 98.4 ± 34.5. The method, then: The effect of the compound of this invention on adenine nephrosis in rats was evaluated.
Method: Male Wistar rats, aged 7 weeks, were purchased from SLC and used.
The rats were put on a 0.5% adenine-containing diet for 30 days to induce adenine nephrosis.
The test substance EPC-K was intraperitoneally administered once a day. Physiological saline was used as control.

Data set [6] deals with neutrophil-derived active oxygens formed due to the dialysis membrane. The experiment in a line: Chemiluminescence assay of scavenging effect on neutrophil-derived active oxygens formed due to the dialysis membrane. Type of data set: cell-based, SD rat. The following applies: PMMA membrane, MCLA; for Chemiluminescence photon count: mean ± standard deviation, n=5, blank test 42392 ± 12789. On the procedure:
The scavenging effect of the compound of this invention on the neutrophil-derived active oxygens formed due to the dialysis membrane was evaluated by the chemiluminescence assay.
An SD rat was intraperitoneally infused with 120 ml/kg of 1% casein-containing Krebs-Ringer bicarbonate buffer (Ca^2+ -free) and kept as it was for 15 to 18 hours. Then, ice-cooled phosphate buffered saline (Ca^2+ /Mg^2+ -free, briefly PBS) was infused into the peritoneal cavity and after massaging the abdomen, laparotomy was performed to collect the peritoneal fluid. This fluid was centrifuged (4° C.) at 150G for 5 minutes and the sediment was subjected to hemolysis treatment, washed with 2 portions of PBS and suspended in Hanks buffered saline (Ca^2+ /Mg^2+ -free; abbreviation: HBS) at a concentration of 5×10^6 cells/ml.
The hollow fiber of polymethyl methacrylate (PMMA) was taken out from the Filtrizer cartridge, rinsed and dried. The dried hollow fiber was milled in a mortar (to a particle diameter of about 20 to 100 μm) and suspended in HBS at a concentration of 100 mg/ml.
MCLA (2-methyl-6-[p-methoxyphenyl]-3,7,-dihydroimidazolo[1,2-a]pyrazin-3-one)(Cypridina luciferin analog; manufactured by Tokyo Kasei Kogyo Co., Ltd.) was dissolved in HBS at a concentration of 5 μM.
EPC-K was dissolved in HBS at final concentrations of 1 μM to 10 μM. To 100 μl of each solution were added 300 μl of the neutrophil suspension and 100 μl of the MCLA solution and the mixture was incubated at 37° for 10 minutes. Then, 20 μl of the PMMA suspension was added and the resulting MCLA-dependent chemiluminescence was quantitated in 5 replicates. From the photon count at maximal emission was subtracted the minimal count immediately following addition of the PMMA suspension to arrive at the chemiluminescence photon count (CPM). The count obtained with HBS (blank test) was compared with the count obtained with the drug and the percent inhibition (%) was calculated by means of the following equation. [formula]

As for `Cc1c(C)c2c(c(C)c1OP(=O)(O)OC1=C(O)[C@@H]([C@@H](O)CO)OC1=O)CCC(C)(CCCC(C)CCCC(C)CCCC(C)C)O2` (mixture of isomers) [EPC-K, L-ascorbyl DL-α-tocopheryl phosphate potassium], the LD50 is not below 100 mg/kg in data set [1] (iv, i.v. (rats)) and not below 5000 mg/kg in data set [1] (po, p.o. (rats)). The “Creatinine (serum)” value in data set [2] (* p < 0.05, distilled water 5.8 ± 0.2) is 2.0 ± 1.3 mg/dL. For the same compound, the “BUN (serum)” value in data set [2] (** p < 0.01, distilled water 208.5 ± 17.7) came out at 62.5 ± 37.1 mg/dL. Also, the “LPO (serum lipid peroxide)” value in data set [2] (distilled water 5.4 ± 0.9) is 3.8 ± 0.1 nmol/mL. Besides, the BUN in data set [3] (* p < 0.0001, control (saline) 23.5 ± 1.7) amounted to 18.2 ± 1.2 mg/dL; in data set [4] (5 mg/kg, i.p. once daily for 4 weeks), 15.6 ± 2.7 mg/dL; in data set [4] (141 mg/kg, p.o. once daily for 4 weeks) it was 18.5 ± 2.1 mg/dL; in data set [5] (5 mg/kg, * p < 0.05) it was 61.5 ± 13.2 mg/dL; in data set [5] (10 mg/kg, ** p < 0.01) it was 40.2 ± 5.2 mg/dL. The Creatinine was 0.30 ± 0 mg/dL in data set [3] (control (saline) 0.50 ± 0.28); 1.14 ± 0.32 mg/dL in data set [5] (5 mg/kg, * p < 0.05); 0.73 ± 0.15 mg/dL in data set [5] (10 mg/kg, ** p < 0.01). Also, the LPO in data set [3] (control (saline) 2.5 ± 1.8) came to 1.4 ± 0.8 nmol/mL. Moreover, the Urinary protein in data set [3] (control (saline) 696 ± 710) turned out to be 119 ± 54 mg/day. Also, the Chemiluminescence photon count in data set [6] (1 μM) was 32230 ± 6949 CPM; in data set [6] (3 μM), 26800 ± 3057 CPM; in data set [6] (10 μM), 14518 ± 3648 CPM. The inhibition at 1 µM in data set [6] (Rattus norvegicus, 1 μM, versus blank test (HBS), read-out: Percent inhibition) was 24%. In addition, in data set [6] (Rattus norvegicus, 3 μM, versus blank test (HBS), read-out: Percent inhibition), the inhibition at 3 µM stood at 36.8%. Also, in data set [6] (Rattus norvegicus, 10 μM, versus blank test (HBS), read-out: Percent inhibition), the inhibition at 10 µM stood at 65.8%.

As a reminder, the LD50 is the dose expected to kill half of the subjects tested. A low value points to a more toxic substance. The inhibition is the change of the read-out against control, counted positive when it falls.
